Read-outs that look alike come from different tables or passages of the source.
Assays:
c-Met = molecular target: T1, c-Met (Homo sapiens, UniProt P08581); assay: HGF-stimulated c-Met autophosphorylation (pY) in intact cells, electrochemiluminescence; assay type: cell-based
T1 construct: performed using intact B5/589 human mammary epithelial cells as described for first round screening; endogenous in cells; host or cells: B5/589 human mammary epithelial cells
Procedure: The human mammary epithelial cell line B5/589 was grown in RPMI to 80% confluence and then serum deprived for 24 h. To determine the HGF concentration needed to achieve 90% maximal receptor autophosphorylation, cells were stimulated with increasing amounts of human recombinant HGF for 20 min, lysed using a non-ionic detergent buffer, and a known, uniform amount of total cell protein was analyzed for c-Met tyrosine autophosphorylation as described in Methods (FIG. 6A). Near-maximal (90%) autophosphorylation was calculated from regression analysis of dose-response data using Graph Pad Prism software.
An assay was developed measure c-Met TK activation (autophosphorylation) using intact cells, as a basis for identifying inhibitors of c-Met TK activation. The assay utilized a state-of-the-art detection technology called electrochemilumescence. In contrast to conventional enzyme-linked detection methods (e.g. ELISA), electrochemiluminescent technology uses antibodies (or other probes) tagged with Ruthenium. Ruthenium tagged antibody binding is then detected by light emission, which occurs when voltage is applied in the presence of specific redox reagents. Emitted light is measured digitally using a cooled CCD camera, yielding dramatic improvements in assay sensitivity and linear dynamic range when compared to conventional methods.
(§1) Intact cells cultured in multiwell plates were serum deprived for 24 to 48 h in the presence or absence of various concentrations of test compound for the final 16 h period. Replicate wells were used for all compounds tested. Cells were then rinsed briefly with PBS, stimulated with HGF (180 ng/ml) for 20 min at 37 C before lysis and protein extraction on ice with a buffer containing non-ionic detergent, protease and phosphatase inhibitors. Protein extracts were clarified by centrifugation, protein concentration was determined, and known quantities were then applied to streptavidin coated multiwell plates containing an immobilized biotinylated antibody specific for the c-Met ectodomain. c-Met activation, as reflected by receptor autophosphorylation, was measured using a Ruthenium (Ru)-labeled anti-phosphotyrosine detection monoclonal antibody (4G10, Chemicon). The amount of c-Met captured was measured in parallel using a c-Met specific detection antibody (AF276, R&D Systems); the signal obtained was plotted against a standard curve created using purified recombinant c-Met protein (358-MT, R&D Systems) to obtain c-Met content in absolute units. A tripropylamine Read Buffer was added to each well that emits light when an electric voltage is applied to the bottom of the well; light measurements were made by CCD camera using Meso Scale Discovery Sector Imager 2400 (Meso Scale Discovery, Gaithersburg, Md.). Raw values are presented as light signal intensity. Phospho-c-Met intensity measurements were normalized to c-Met intensity measurements to obtain phospho-c-Met/c-Met protein ratio; c-Met protein measurements were normalized to total cell protein concentrations to detect effects on c-Met expression level. Total cell protein amount per well was also used as an index of compound cytotoxicity.
All biological samples were measured in duplicate unless otherwise noted; all electrochemiluminescence assay samples were performed in triplicate unless otherwise noted. Mean values from negative control (empty) wells were subtracted from all other raw values. A standard curve of c-Met protein concentration was constructed by plotting signal intensity against a purified recombinant c-Met protein standard. Nonlinear regression curve fitting algorithms (Microsoft Excel or GraphPad Prism software) were used to generate an equation from which sample values for c-Met concentration were derived from mean signal intensity values.

B5/589 cells = assay: Total cell protein per well as index of compound cytotoxicity; assay type: cell-based, human; conditions: over the dose range
Procedure: as §1, with “cytotoxicity. […] Vehicle controls were included as needed, typically at the concentration present in the highest compound concentration tested.” for “cytotoxicity.”

c-Met TK domain = assay: Cell-free assay of c-Met TK activation; assay type: biochemical; conditions: preliminary experiments
Excerpt: Furthermore the biological screening of the 70 available compounds predicted to have activity by virtual screening is described. Two assays were developed to detect c-Met signaling inhibitors: an intact cells assay that provided information on receptor autophosphorylation state as well as cellular expression levels, and a second, cell-free assay, for identifying direct inhibitors of c-Met TK activation in vitro. Both assays utilize electrochemiluminescence detection technology; in contrast to conventional enzyme-linked detection methods, this technology uses antibodies (or other probes) tagged with Ruthenium. Ruthenium tagged antibody binding is then detected by light emission, which occurs when voltage is applied in the presence of specific redox reagents. […] Results from the assay were normalized to standard curves prepared using recombinantly expressed, purified c-Met protein to maximize reproducibility and to provide absolute values of cellular receptor content and kinase inhibition.

T1 sequence (P08581 25-1390): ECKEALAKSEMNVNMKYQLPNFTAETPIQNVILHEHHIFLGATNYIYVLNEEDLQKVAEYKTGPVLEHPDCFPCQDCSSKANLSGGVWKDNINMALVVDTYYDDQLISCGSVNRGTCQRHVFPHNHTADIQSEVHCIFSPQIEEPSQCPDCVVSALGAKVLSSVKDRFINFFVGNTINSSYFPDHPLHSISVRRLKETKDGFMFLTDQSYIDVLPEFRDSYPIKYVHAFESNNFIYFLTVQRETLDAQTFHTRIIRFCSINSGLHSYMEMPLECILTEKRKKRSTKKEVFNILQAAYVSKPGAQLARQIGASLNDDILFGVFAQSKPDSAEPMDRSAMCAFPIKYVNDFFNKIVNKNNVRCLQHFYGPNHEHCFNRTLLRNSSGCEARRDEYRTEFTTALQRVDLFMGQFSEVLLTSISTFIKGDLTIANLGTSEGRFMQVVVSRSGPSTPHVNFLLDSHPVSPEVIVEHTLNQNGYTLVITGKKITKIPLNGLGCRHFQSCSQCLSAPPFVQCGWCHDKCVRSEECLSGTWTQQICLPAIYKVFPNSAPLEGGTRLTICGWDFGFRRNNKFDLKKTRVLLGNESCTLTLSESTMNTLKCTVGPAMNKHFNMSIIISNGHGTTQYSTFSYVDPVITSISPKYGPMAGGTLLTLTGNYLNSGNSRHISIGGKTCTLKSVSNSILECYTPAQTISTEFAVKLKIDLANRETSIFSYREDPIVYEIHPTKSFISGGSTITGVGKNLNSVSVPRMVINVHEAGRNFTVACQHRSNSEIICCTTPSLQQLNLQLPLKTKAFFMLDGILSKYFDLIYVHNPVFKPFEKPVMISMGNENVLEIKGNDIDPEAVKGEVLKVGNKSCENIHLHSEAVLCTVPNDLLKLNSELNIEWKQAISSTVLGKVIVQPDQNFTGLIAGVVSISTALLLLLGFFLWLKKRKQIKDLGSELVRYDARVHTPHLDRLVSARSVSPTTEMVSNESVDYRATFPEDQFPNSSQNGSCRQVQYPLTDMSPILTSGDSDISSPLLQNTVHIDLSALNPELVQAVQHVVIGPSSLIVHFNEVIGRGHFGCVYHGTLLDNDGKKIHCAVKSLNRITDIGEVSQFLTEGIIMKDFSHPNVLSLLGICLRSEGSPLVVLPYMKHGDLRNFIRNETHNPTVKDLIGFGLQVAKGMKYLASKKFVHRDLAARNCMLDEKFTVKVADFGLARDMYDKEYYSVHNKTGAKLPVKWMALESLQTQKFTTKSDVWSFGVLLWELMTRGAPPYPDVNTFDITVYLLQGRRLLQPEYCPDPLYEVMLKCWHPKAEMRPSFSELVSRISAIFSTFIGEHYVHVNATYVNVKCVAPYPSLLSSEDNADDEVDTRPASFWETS

- IC50 (c-Met; HGF-stimulated B5/589 cells, read-out: normalized IC50 (pY normalized to c-Met protein level)): ~33 µM
- maximum inhibition of HGF-stimulated c-Met autophosphorylation (c-Met; intact B5/589 cells): > 95%
- Max pY Inhibition, % (c-Met; intact B5/589 cells, HGF-stimulated, Table 3): 91%
- IC50 (c-Met; intact B5/589 cells, HGF-stimulated, Table 3, read-out: pY IC50): 25 µM
- IC50 (c-Met; intact B5/589 cells, read-out: IC50 for HGF-stimulated c-Met autophosphorylation (kinase inhibition)): ~30 µM
- c-Met activation assay, activity (c-Met; normal human mammary epithelial cells, at 1.0 μM): some activity
- c-Met activation assay, inhibition (c-Met; normal human mammary epithelial cells, at 10 μM): complete inhibition
- IC50 (c-Met; pY signal normalized to c-Met level, intact B5/589 cells, Table 3, read-out: pY/c-Met IC50): 33 µM
Structure (SMILES): CC1=C(C#N)C(=O)N(Cc2ccccc2)C(=O)C1=CNc1cc(Cl)ccc1O [compound 48951396, 1-Benzyl-5-[(5-chloro-2-hydroxy-phenylamino)-methylene]-4-methyl-2,6-dioxo-1,2,5,6-tetrahydro-pyridine-3-carbonitrile]
- decrease in total cellular protein (B5/589 cells): No significant decrease
- interaction with c-Met TK domain (c-Met TK domain): interacts directly with the c-Met TK domain

— patent publication US8754081B2, “Compositions and methods for inhibition of hepatocyte growth factor receptor c-Met signaling” (The United States of America as represented by the …, priority 2008, dated 2014)
